The results in this text go back to PubChem BioAssay AID248 (DTP/NCI, 2004).

Each structure is given as a SMILES string. Inconclusive results and toxic doses are left out.

For the test, the system named is L1210 leukemia ip in BDF1 mice, survival T/C. Kind of test: NCI In Vivo Anticancer Drug Screen. Data for tumor model L1210 Leukemia (intraperitoneal) in B6D2F1 (BDF1) mice. The note with it: endpoint: mean survival time, higher = longer survival. A digest of the protocol:
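Each compound was tested against a transplantable tumor grown in mice. The endpoint was survival, with treated animals benchmarked against vehicle controls as a simple ratio.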

[1] abbreviates: dose: 100.0 mg/kg/injection, schedule: Q01DX001 (ip), vehicle: saline.
The mark [2] stands for this setting: dose: 200.0 mg/kg/injection, schedule: Q01DX001 (ip), vehicle: saline.
Setting [3] is: dose: 400.0 mg/kg/injection, schedule: Q01DX001 (ip), vehicle: saline.
The mark [4] stands for this setting: dose: 100.0 mg/kg/injection, schedule: Q04DX003 (ip), vehicle: saline with Tween-80.
Setting [5] is: dose: 200.0 mg/kg/injection, schedule: Q04DX003 (ip), vehicle: saline with Tween-80.
The mark [6] stands for this setting: dose: 400.0 mg/kg/injection, schedule: Q04DX003 (ip), vehicle: saline with Tween-80.
The mark [7] stands for this setting: dose: 50.0 mg/kg/injection, schedule: Q01DX001 (ip), vehicle: carboxymethylcellulose (CMC).
The mark [8] stands for this setting: dose: 100.0 mg/kg/injection, schedule: Q01DX001 (ip), vehicle: carboxymethylcellulose (CMC).
Where [9] appears, read: dose: 200.0 mg/kg/injection, schedule: Q01DX001 (ip), vehicle: carboxymethylcellulose (CMC).
Setting [10] is: dose: 400.0 mg/kg/injection, schedule: Q01DX001 (ip), vehicle: carboxymethylcellulose (CMC).
Where [11] appears, read: dose: 100.0 mg/kg/injection, schedule: Q01DX009 (ip), vehicle: saline with Tween-80.
Where [12] appears, read: dose: 200.0 mg/kg/injection, schedule: Q01DX009 (ip), vehicle: saline with Tween-80.
Where [13] appears, read: dose: 400.0 mg/kg/injection, schedule: Q01DX009 (ip), vehicle: saline with Tween-80.
Where [14] appears, read: dose: 100.0 mg/kg/injection, schedule: Q01DX001 (ip), vehicle: Klucel (hydroxypropylcellulose) (HPC).
[15] abbreviates: dose: 200.0 mg/kg/injection, schedule: Q01DX001 (ip), vehicle: Klucel (hydroxypropylcellulose) (HPC).
Setting [16] is: dose: 400.0 mg/kg/injection, schedule: Q01DX001 (ip), vehicle: Klucel (hydroxypropylcellulose) (HPC).
Setting [17] is: dose: 100.0 mg/kg/injection, schedule: Q01DX009 (ip), vehicle: Klucel (hydroxypropylcellulose) (HPC).
[18] abbreviates: dose: 200.0 mg/kg/injection, schedule: Q01DX009 (ip), vehicle: Klucel (hydroxypropylcellulose) (HPC).

On to `O=C(Nc1ccc(S(=O)(=O)F)cc1)/C(=C\c1ccc([N+](=O)[O-])cc1)c1cccc2ccccc12`, for which the T/C runs as follows: (dose: 100.0 mg/kg/injection, schedule: Q01DX009 (ip), vehicle: saline) 91 % of control; (dose: 200.0 mg/kg/injection, schedule: Q01DX009 (ip), vehicle: saline) 99 % of control; (dose: 400.0 mg/kg/injection, schedule: Q01DX009 (ip), vehicle: saline) 94 % of control.
With `CCOC(=O)C1=NN(c2ccccc2)C(=O)C1N=Nc1ccc(S(=O)(=O)Nc2cc(C)nc(C)n2)cc1` (stereo not given), the T/C runs as follows: under setting [1], 101 % of control; under setting [2], 102 % of control; under setting [3], 96 % of control.
With `O=C(Nc1ccc(NC(=O)c2ccc(C3=NCCN3)cc2)cc1)Nc1ccc(C2=NCCN2)cc1`, the T/C is, setting by setting: (dose: 6.25 mg/kg/injection, schedule: Q01DX Z (ip), vehicle: carboxymethylcellulose (CMC)) 117 % of control; (dose: 25.0 mg/kg/injection, schedule: Q01DX Z (ip), vehicle: carboxymethylcellulose (CMC)) 206 % of control; (dose: 50.0 mg/kg/injection, schedule: Q01DX Z (ip), vehicle: carboxymethylcellulose (CMC)) 268 % of control; (dose: 62.0 mg/kg/injection, schedule: Q01DX Z (ip), vehicle: carboxymethylcellulose (CMC)) 282 % of control; (dose: 62.0 mg/kg/injection, schedule: Q01DX Z (oral), vehicle: carboxymethylcellulose (CMC)) 120 % of control; (dose: 100.0 mg/kg/injection, schedule: Q01DX Z (ip), vehicle: carboxymethylcellulose (CMC)) 106 % of control. Moreover, the T/C was 214 % of control (dose: 125.0 mg/kg/injection, schedule: Q01DX Z (ip), vehicle: carboxymethylcellulose (CMC)); 97 % of control (dose: 125.0 mg/kg/injection, schedule: Q01DX Z (oral), vehicle: carboxymethylcellulose (CMC)); 94 % of control (dose: 150.0 mg/kg/injection, schedule: Q01DX Z (ip), vehicle: carboxymethylcellulose (CMC)); 115 % of control (dose: 175.0 mg/kg/injection, schedule: Q01DX Z (ip), vehicle: carboxymethylcellulose (CMC)); 109 % of control (dose: 250.0 mg/kg/injection, schedule: Q01DX Z (ip), vehicle: carboxymethylcellulose (CMC)); 103 % of control (dose: 250.0 mg/kg/injection, schedule: Q01DX Z (oral), vehicle: carboxymethylcellulose (CMC)). The T/C (dose: 300.0 mg/kg/injection, schedule: Q01DX Z (oral), vehicle: carboxymethylcellulose (CMC)) was 103 % of control.
Consider `Cc1ccc(S(=O)(=O)N(C)c2ccc(C#N)c3ccccc23)cc1`, for which the T/C is 97 % of control under setting [4], 89 % of control under setting [5] and 90 % of control under setting [6].
For the molecule `CNC1CCCCC1`, the T/C by setting is: under setting [7], 96 % of control; under setting [8], 102 % of control; under setting [9], 106 % of control; under setting [10], 112 % of control.
In the case of `COc1ccccc1NC(=O)Nc1cccc(C(C)=O)c1`, the T/C was 93 % of control under setting [11]; 97 % of control under setting [4]; 90 % of control under setting [12]; 100 % of control under setting [5]; 100 % of control under setting [13]; 96 % of control under setting [6].
As to `COC(OC)c1[nH]c(=S)[nH]c(=O)c1Cc1ccccc1Cl`, the T/C runs as follows: (dose: 100.0 mg/kg/injection, schedule: Q04DX002 (ip), vehicle: Klucel (hydroxypropylcellulose) (HPC)) 97 % of control; (dose: 200.0 mg/kg/injection, schedule: Q04DX002 (ip), vehicle: Klucel (hydroxypropylcellulose) (HPC)) 97 % of control; (dose: 400.0 mg/kg/injection, schedule: Q04DX002 (ip), vehicle: Klucel (hydroxypropylcellulose) (HPC)) 105 % of control.
Take `NNc1ccc2c(O)cc(S(=O)(=O)O)cc2c1`: the T/C is, setting by setting: under setting [1], 98 % of control; (dose: 100.0 mg/kg/injection, schedule: Q04DX003 (ip), vehicle: saline) 103 % of control; under setting [2], 104 % of control; (dose: 200.0 mg/kg/injection, schedule: Q04DX003 (ip), vehicle: saline) 95 % of control; under setting [3], 107 % of control; (dose: 400.0 mg/kg/injection, schedule: Q04DX003 (ip), vehicle: saline) 101 % of control.
As to `Cn1cc([N+](=O)[O-])c(=O)n(C)c1=O`, the T/C is, setting by setting: under setting [7], 93 % of control; under setting [8], 98 % of control; under setting [9], 102 % of control; under setting [10], 104 % of control.
Turning to `COC1OC(CCl)C(OC(=O)c2ccccc2)C(OC(=O)c2ccccc2)C1OS(=O)(=O)c1ccc(C)cc1` (stereo not given), the T/C reads like this: (dose: 75.0 mg/kg/injection, schedule: Q04DX002 (ip), vehicle: Klucel (hydroxypropylcellulose) (HPC)) 87 % of control; (dose: 150.0 mg/kg/injection, schedule: Q04DX002 (ip), vehicle: Klucel (hydroxypropylcellulose) (HPC)) 87 % of control; (dose: 300.0 mg/kg/injection, schedule: Q04DX002 (ip), vehicle: Klucel (hydroxypropylcellulose) (HPC)) 97 % of control.
Take `CS(=O)(=O)OCCN(CCOS(C)(=O)=O)c1ccc(C=Nc2cccc(Br)c2)cc1`: the T/C is 103 % of control (dose: 2.5 mg/kg/injection, schedule: Q04DX003 (ip), vehicle: Klucel (hydroxypropylcellulose) (HPC)); 109 % of control (dose: 5.0 mg/kg/injection, schedule: Q04DX003 (ip), vehicle: Klucel (hydroxypropylcellulose) (HPC)); 117 % of control (dose: 10.0 mg/kg/injection, schedule: Q04DX003 (ip), vehicle: Klucel (hydroxypropylcellulose) (HPC)); 92 % of control (dose: 100.0 mg/kg/injection, schedule: Q04DX003 (ip), vehicle: Klucel (hydroxypropylcellulose) (HPC)).
As to `O=C(c1ccccc1)C12CC3CC(CC(C3)C1)C2`, the T/C (dose: 75.0 mg/kg/injection, schedule: Q04DX003 (ip), vehicle: Klucel (hydroxypropylcellulose) (HPC)) was 93 % of control; the T/C under setting [14] is 96 % of control; the T/C (dose: 150.0 mg/kg/injection, schedule: Q04DX003 (ip), vehicle: Klucel (hydroxypropylcellulose) (HPC)) is 93 % of control; the T/C under setting [15] is 100 % of control; the T/C (dose: 300.0 mg/kg/injection, schedule: Q04DX003 (ip), vehicle: Klucel (hydroxypropylcellulose) (HPC)) is 106 % of control; the T/C under setting [16] was 105 % of control.
With `CSc1ncnc2c1nnn2C1CC(CO)C(O)C1O` (stereo not given), the T/C reads like this: under setting [14], 95 % of control; under setting [15], 101 % of control; under setting [16], 102 % of control.
`CC(=O)OCc1cc2ccccc2nc1C`: the T/C is 110 % of control under setting [11]; 102 % of control under setting [4]; 104 % of control under setting [12]; 96 % of control under setting [5]; 98 % of control under setting [13]; 96 % of control under setting [6].
As to `CS(=O)(=O)Nc1ccc(Nc2c3ccccc3nc3cc(Cl)ccc23)cc1`, the T/C was 118 % of control (dose: 10.0 mg/kg/injection, schedule: Q01DX009 (sc), vehicle: saline); 113 % of control (dose: 20.0 mg/kg/injection, schedule: Q01DX009 (sc), vehicle: saline); 176 % of control (dose: 133.0 mg/kg/injection, schedule: Q04DX003 (ip), vehicle: saline with Tween-80); 103 % of control under setting [5]; 113 % of control (dose: 300.0 mg/kg/injection, schedule: Q04DX003 (ip), vehicle: saline with Tween-80).
For the molecule `O=C(O)c1ccc(Cl)o1`, the T/C under setting [17] is 97 % of control and the T/C under setting [18] was 98 % of control.
Consider `C=C(Br)CN1CCCC1=O`, for which the T/C (dose: 75.0 mg/kg/injection, schedule: Q01DX009 (ip), vehicle: saline) is 98 % of control; the T/C (dose: 150.0 mg/kg/injection, schedule: Q01DX009 (ip), vehicle: saline) is 106 % of control; the T/C (dose: 300.0 mg/kg/injection, schedule: Q01DX009 (ip), vehicle: saline) is 114 % of control.
`CC(=O)Nc1ccc(S(=O)(=O)Nc2cc(C)ccc2C)cc1`: the T/C is, setting by setting: under setting [17], 94 % of control; under setting [18], 103 % of control; (dose: 400.0 mg/kg/injection, schedule: Q01DX009 (ip), vehicle: Klucel (hydroxypropylcellulose) (HPC)) 103 % of control.
